What was measured:
MOLP-8 cells = experiment: MOLP-8 cell proliferation assay (alamarBlue); type: cell-based; conditions: inhibition of cell proliferation, 120 hours, human multiple myeloma cell line
Description: (§1) In accordance with the invention, the ability of the substances to inhibit cell proliferation was determined Cell viability was determined by means of the alamarBlue® reagent (Invitrogen) in a Victor X3 Multilabel Reader (Perkin Elmer). The excitation wavelength was 530 nm and the emission wavelength […].
The MOLP-8 cells (DSMZ, ACC 569) were sown at a concentration of 4000 cells/well in 100 μl of growth medium (RPMI1640, 20% FCS) on 96-well microtitre plates.
(§2) After overnight incubation at 37° C., the fluorescence values were determined (CI values). Then the plates were treated with various substance dilutions (1E-5 M, 3E-6 M, 1E-6 M, 3E-7 M, 1E-7 M, 3E-8 M, 1E-8 M) and incubated at 37° C. over 96 hours (MOLM-13, B16F10 cells) or 120 hours (MOLP-8 cells). Subsequently, the fluorescence values were determined (CO values). For the data analysis, the CI values were subtracted from the CO values and the results were compared between cells which had been treated with various dilutions of the substance or only with buffer solution. The IC50 values (substance concentration needed for 50% inhibition of cell proliferation) were calculated therefrom.
MOLP-8 human multiple myeloma cell line

MOLM-13 cells = experiment: MOLM-13 cell proliferation assay (alamarBlue); type: cell-based; conditions: inhibition of cell proliferation, 96 hours, human AML cell line
Description: as §1
The MOLM-13 cells (DSMZ, ACC 554) were sown at a concentration of 4000 cells/well in 100 μl of growth medium (RPMI1640, 10% FCS) on 96-well microtitre plates.
as §2
MOLM-13 human AML (acute myeloid leukaemia) cell line

[1] = target: T1, BRD4 Bromo Domain 1 [BRD4(1)] (Homo sapiens, UniProt O60885); experiment: BRD4(1)/acetylated peptide H4 binding assay (TR-FRET); conditions: inhibition of interaction between His6-tagged BRD4(1) (amino acids 67-152) and acetylated histone H4 peptide
T1 construct: N-terminally His6-tagged BRD4(1) (amino acids 67-152); made in house; host or cells: E. coli
Source text: Protein-Protein Interaction Assay: BRD4/Acetylated Peptide H4 Binding Assay
1. Assay Description for BRD4 Bromo Domain 1 [BRD4(1)]
To assess the BRD4(1) binding strength of the substances described in this application, the ability thereof to inhibit the interaction between BRD4(1) and acetylated histone H4 in a dose-dependent manner was quantified.
For this purpose, a time-resolved fluorescence resonance energy transfer (TR-FRET) assay was used, which measures the binding between N-terminally His6-tagged BRD4(1) (amino acids 67-152) and a synthetic acetylated histone H4 (Ac-H4) peptide with sequence GRGK(Ac)GGK(Ac)GLGK(Ac)GGAK(Ac)RHGSGSK-biotin. The recombinant BRD4(1) protein produced in house according to Filippakopoulos et al., Cell, 2012, 149:214-231 was expressed in E. coli and purified by means of (Ni-NTA) affinity and (Sephadex G-75) size exclusion chromatography. The Ac-H4 peptide can be purchased, for example, from Biosyntan (Berlin, Germany).
In the assay, typically 11 different concentrations of each substance (0.1 nM, 0.33 nM, 1.1 nM, 3.8 nM, 13 nM, 44 nM, 0.15 μM, 0.51 μM, 1.7 μM, 5.9 μM and 20 μM) were analysed as duplicates on the same microtitre plate. For this purpose, 100-fold concentrated solutions in DMSO were prepared by serial dilutions (1:3.4) of a 2 mM stock solution into a clear, 384-well microtitre plate (Greiner Bio-One, Frickenhausen, Germany). From this, 50 nl were transferred into a black test plate (Greiner Bio-One, Frickenhausen, Germany). The test was started by the addition of 2 μl of a 2.5-fold concentrated BRD4(1) solution (final concentration typically 10 nM in the 5 μl of reaction volume) in aqueous assay buffer [50 mM HEPES pH 7.5, 50 mM sodium chloride (NaCl), 0.25 mM CHAPS and 0.05% serum albumin (BSA)] to the substances in the test plate. This was followed by a 10-minute incubation step at 22° C. for the pre-equilibration of putative complexes between BRD4(1) and the substances.
The mixture was then incubated in the dark at 22° C. for one hour and then at 4° C. for at least 3 hours and for no longer than overnight. The formation of BRD4(1)/Ac-H4 complexes was determined by the measurement of the resonance energy transfer from the streptavidin-Eu cryptate to the anti-6His-XL665 antibody present in the reaction. For this purpose, the fluorescence emission was measured at 620 nm and 665 nm after excitation at 330-350 nm in a TR-FRET measuring instrument, for example a Rubystar or Pherastar (both from BMG Lab Technologies, Offenburg, Germany) or a Viewlux (Perkin-Elmer). The ratio of the emissions at 665 nm and at 622 nm was taken as an indicator of the amount of BRD4(1)/Ac-H4 complexes formed.
The data (ratios) obtained were normalized, with 0% inhibition corresponding to the mean from the measurements for a set of controls (typically 32 data points) in which all the reagents were present. In these, in place of test substances, 50 nl of DMSO (100%) were used Inhibition of 100% corresponded to the mean from the measurements for a set of controls (typically 32 data points) in which all the reagents except BRD4(1) were present. The IC50 was determined by regression analysis based on a 4-parameter equation (minimum, maximum, IC50, Hill; Y=max+(min−max)/(1+(X/IC50)Hill).

B16F10 cells = experiment: B16F10 cell proliferation assay (alamarBlue); type: cell-based; conditions: B16-F10; inhibition of cell proliferation, 96 hours, mouse melanoma cell line
Description: as §1
The B16F10 cells (ATCC, CRL-6475) were sown at a concentration of 300-500 cells/well in 100 μl of growth medium (DMEM with phenol red, 10% FCS) on 96-well microtitre plates.
as §2
B16F10 mouse melanoma cell line

Work on `C[C@@H]1C(=O)N(C)c2ccc(Nc3ccc(C(=O)NC4CCN(C)CC4)cc3)cc2N1C1CCCC1` [Example 4, 4-{[(3R)-4-cyclopentyl-1,3-dimethyl-2-oxo-1,2,3,4-tetrahydroquinoxalin-6-yl]amino}-N-(1-methylpiperidin-4-yl)benzamide] yielded an IC50 (MOLP-8 cells) of 468 nM, an IC50 (MOLM-13 cells) of 356 nM and an IC50 [1] of 50 nM. The IC50 (B16F10 cells) was 643 nM.
